# Counter-ions that a name gives are not always drawn.
# Assays:
# MNK2 = MNK2 (Homo sapiens (Human), UniProt Q9HBH9); assay: MNK Biochemical Enzymatic Assay (ADP-Glo), MNK2 binding assay
# Summary of the method: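 Human MNK1 or MNK2 was preincubated with a 10-point, 1:3 serial dilution of compound for 15 min at 25 °C. Substrate was then added and the reaction ran 60 min at 25 °C. ADP formed was read by ADP-Glo luminescence, and IC50 came from non-linear regression.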
# TMD-8 cell p-IF4E = assay: p-eIF4E Signaling Cellular Assay (CisBio HTRF) in TMD-8 cells; assay type: cell-based; conditions: 40 min treatment
# Procedure: p-eIF4E Signaling Cellular Assay. Phosphorylated eIF4E is assayed using the CisBio p-Eif4E HTRF assay kit. Reagents and equipment used in the assay are listed below, followed by the protocol.
# Cell medium: RPMI 1640+10% FBS+1*PS, TMD-8 were cultured as recommended and assayed in exponential growth phase. • a) Plate 30 μL of cells in 384 white assay plate in appropriate medium and proper cell density (20 k/well) based on Optimization at 37° C. under 5% CO2 atmosphere • b) Dispense 90 nL of compounds diluted in DMSO and treat for 40 min at 37° C. under 5% CO2 atmosphere • c) Remove cell supernatant by flicking the plate • d) Add 16 μL of supplemented lysis buffer (1×) for 30 minutes at RT under shaking • e) Add 4 μL of premixed antibody solutions prepared in the detection buffer. Cover the plate with a plate sealer. Incubate 0/N at RT • f) Read the fluorescence emission at 665 nm and 620 nm on Envision • g) Data analysis • (1) Ratio […] signal is calculated for each well • (2) % Inhibition is calculated as follow:
# % inhibition=100−(Signalcmpd-SignalAve_PC)/(SignalAve_VC-SignalAve_PC)×100. • (3) Calculate IC50 and Plot effect-dose curve of cmpds:
# Calculate IC50 by fitting % Inhibition values and log of compound concentrations to nonlinear regression (dose response−variable slope) with Graphpad 8.0.
# Y=Bottom+(Top−Bottom)/(1+10^((Log IC50−X)*Hill Slope)) • X: log of Inhibitor concentration; Y: % Inhibition.
# Chain of MNK2 (Q9HBH9 whole entry): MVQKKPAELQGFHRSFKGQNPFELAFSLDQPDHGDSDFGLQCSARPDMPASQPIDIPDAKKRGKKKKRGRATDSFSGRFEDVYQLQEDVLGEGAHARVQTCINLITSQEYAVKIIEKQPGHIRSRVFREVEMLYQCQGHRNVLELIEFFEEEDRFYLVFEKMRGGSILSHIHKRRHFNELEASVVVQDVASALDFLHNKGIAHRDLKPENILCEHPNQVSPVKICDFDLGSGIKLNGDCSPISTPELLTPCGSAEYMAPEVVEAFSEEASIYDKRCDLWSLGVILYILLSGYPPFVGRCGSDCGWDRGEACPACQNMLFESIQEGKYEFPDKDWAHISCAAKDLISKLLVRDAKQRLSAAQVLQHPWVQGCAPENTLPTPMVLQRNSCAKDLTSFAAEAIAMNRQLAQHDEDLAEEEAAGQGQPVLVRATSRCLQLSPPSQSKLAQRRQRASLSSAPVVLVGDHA
SMILES,IC50 (MNK2) [nM],"IC50 (TMD-8 cell p-IF4E; Homo sapiens, TMD8, 40 min) [nM]",IC50 (TMD-8 cell p-IF4E) [nM]
"Cc1ccc(Nc2cc(Nc3cc(C)c4c([n+]3[O-])C3(CCCCC3)NC4=O)ncn2)nc1 [Compound XXIX-AAA, 4′-methyl-2′-((6-((5-methylpyridin-2-yl)amino)pyrimidin-4-yl)amino)-5′-oxo-5′,6′-dihydrospiro[cyclohexane-1,7′-pyrrolo[3,4-b]pyridine] 1′-oxide]",0.1 to 10,0.1 to 10,
"Cc1cc(Nc2cc(N[C@H]3C[C@@](C)(O)C3)ncn2)[n+]([O-])c2c1C(=O)NC21CCCCC1 [Compound XXIX-AAC, 4′-methyl-5′-oxo-2′-[(6-{[trans-3-hydroxy-3-methylcyclobutyl]amino}pyrimidin-4-yl)amino]-6′H-spiro[cyclohexane-1,7′-pyrrolo[3,4-b]pyridin]-1′-ium-1′-olate]",0.1 to 10,,10 to 100
"Cc1cc(Nc2cc(Nc3ccon3)ncn2)[n+]([O-])c2c1C(=O)NC21CCCCC1 [Compound XXIX-AAD, 2′-((6-(isoxazol-3-ylamino)pyrimidin-4-yl)amino)-4′-methyl-5′-oxo-5′,6′-dihydrospiro[cyclohexane-1,7′-pyrrolo[3,4-b]pyridine] 1′-oxide]",0.1 to 10,0.1 to 10,
"CO[C@H]1C[C@@H](Nc2cc(Nc3cc(C)c4c([n+]3[O-])C3(CCCCC3)NC4=O)ncn2)C1 [Compound XXIX-AAE, 2′-((6-((cis-3-methoxycyclobutyl)amino)pyrimidin-4-yl)amino)-4′-methyl-5′-oxo-5′,6′-dihydrospiro[cyclohexane-1,7′-pyrrolo[3,4-b]pyridine] 1′-oxide]",0.1 to 10,0.1 to 10,
"Cc1ccnc(Nc2cc(Nc3cc(C)c4c([n+]3[O-])C3(CCCCC3)NC4=O)ncn2)c1 [Compound XXIX-AAI, 4′-methyl-2′-((6-((4-methylpyridin-2-yl)amino)pyrimidin-4-yl)amino)-5′-oxo-5′,6′-dihydrospiro[cyclohexane-1,7′-pyrrolo[3,4-b]pyridine] 1′-oxide]",0.1 to 10,0.1 to 10,
"Cc1cc(Nc2cc(Nc3ccc(N4CCOCC4)cn3)ncn2)[n+]([O-])c2c1C(=O)NC21CCCCC1 [Compound XXIX-AAJ, 4′-methyl-2′-((6-((5-morpholinopyridin-2-yl)amino)pyrimidin-4-yl)amino)-5′-oxo-5′,6′-dihydrospiro[cyclohexane-1,7′-pyrrolo[3,4-b]pyridine] 1′-oxide]",0.1 to 10,0.1 to 10,
"Cc1cc(Nc2cc(Nc3ccc(N4CCNCC4)cn3)ncn2)[n+]([O-])c2c1C(=O)NC21CCCCC1 [Compound XXIX-AAL, 4′-methyl-5′-oxo-2′-[(6-{[5-(piperazin-1-yl)pyridin-2-yl]amino}pyrimidin-4-yl)amino]-6′H-spiro[cyclohexane-1,7′-pyrrolo[3,4-b]pyridin]-1′-ium-1′-olate]",0.1 to 10,0.1 to 10,
"Cc1cc(Nc2cc(Nc3ccc(N4CCCCC4)cn3)ncn2)[n+]([O-])c2c1C(=O)NC21CCCCC1 [Compound XXIX-AAM, 4′-methyl-5′-oxo-2′-((6-((5-(piperidin-1-yl)pyridin-2-yl)amino)pyrimidin-4-yl)amino)-5′,6′-dihydrospiro[cyclohexane-1,7′-pyrrolo[3,4-b]pyridine] 1′-oxide]",0.1 to 10,0.1 to 10,
"Cc1cc(Nc2cc(Nc3ccc(N4C[C@@H](C)N[C@@H](C)C4)cn3)ncn2)[n+]([O-])c2c1C(=O)NC21CCCCC1 [Compound XXIX-AAN, 2′-((6-((5-(cis-3,5-dimethylpiperazin-1-yl)pyridin-2-yl)amino)pyrimidin-4-yl)amino)-4′-methyl-5′-oxo-5′,6′-dihydrospiro[cyclohexane-1,7′-pyrrolo[3,4-b]pyridine]1′-oxide]",0.1 to 10,0.1 to 10,
"CCN1CCN(c2ccc(Nc3cc(Nc4cc(C)c5c([n+]4[O-])C4(CCCCC4)NC5=O)ncn3)nc2)CC1 [Compound XXIX-AAO, 2′-[(6-{[5-(4-ethylpiperazin-1-yl)pyridin-2-yl]amino}pyrimidin-4-yl)amino]-4′-methyl-5′-oxo-6′H-spiro[cyclohexane-1,7′-pyrrolo[3,4-b]pyridin]-1′-ium-1′-olate]",0.1 to 10,0.1 to 10,
"Cc1cc(Nc2cc(Nc3ccc(N4CCN(CCO)CC4)cn3)ncn2)[n+]([O-])c2c1C(=O)NC21CCCCC1 [Compound XXIX-AAP, 2′-((6-((5-(4-(2-hydroxyethyl)piperazin-1-yl)pyridin-2-yl)amino)pyrimidin-4-yl)amino)-4′-methyl-5′-oxo-5′,6′-dihydrospiro[cyclohexane-1,7′-pyrrolo[3,4-b]pyridine]1′-oxide formate salt]",0.1 to 10,0.1 to 10,
"Cc1cc(Nc2cc(Nc3ccn(C(C)C)n3)ncn2)[n+]([O-])c2c1C(=O)NC21CCCCC1 [Compound XXIX-AAQ, 2′-((6-((1-isopropyl-1H-pyrazol-3-yl)amino)pyrimidin-4-yl)amino)-4′-methyl-5′-oxo-5′,6′-dihydrospiro[cyclohexane-1,7′-pyrrolo[3,4-b]pyridine] 1′-oxide]",0.1 to 10,0.1 to 10,
"Cc1cc(Nc2cc(Nc3ncn(C)n3)ncn2)[n+]([O-])c2c1C(=O)NC21CCCCC1 [Compound XXIX-AD, 4′-methyl-2′-((6-((1-methyl-Ill-1,2,4-triazol-3-yl)amino)pyrimidin-4-yl)amino)-5′-oxo-5′,6′-dihydrospiro[cyclohexane-1,7′-pyrrolo[3,4-b]pyridine] 1′-oxide]",0.1 to 10,10 to 100,
"Cc1cc(Nc2cc(Nc3ccn(C(F)(F)F)n3)ncn2)[n+]([O-])c2c1C(=O)NC21CCCCC1 [Compound XXIX-AF, 4′-methyl-5′-oxo-2′-[(6-{[1-(trifluoromethyl)pyrazol-3-yl]amino}pyrimidin-4-yl)amino]-6′H-spiro[cyclohexane-1,7′-pyrrolo[3,4-b]pyridin]-1′-ium-1′-olate]",0.1 to 10,0.1 to 10,
"Cc1cc(Nc2cc(Nc3ccccc3)ncn2)[n+]([O-])c2c1C(=O)NC21CCCCC1 [Compound XXIX-AH, 4′-methyl-5′-oxo-2′-((6-(phenylamino)pyrimidin-4-yl)amino)-5′,6′-dihydrospiro[cyclohexane-1,7′-pyrrolo[3,4-b]pyridine] 1′-oxide]",0.1 to 10,0.1 to 10,
"Cc1cccc(Nc2cc(Nc3cc(C)c4c([n+]3[O-])C3(CCCCC3)NC4=O)ncn2)n1 [Compound XXIX-AL, 4′-methyl-2′-((6-((6-methylpyridin-2-yl)amino)pyrimidin-4-yl)amino)-5′-oxo-5′,6′-dihydrospiro[cyclohexane-1,7′-pyrrolo[3,4-b]pyridine] 1′-oxide]",0.1 to 10,10 to 100,
"Cc1cc(Nc2cc(Nc3ncc(F)cc3F)ncn2)[n+]([O-])c2c1C(=O)NC21CCCCC1 [Compound XXIX-AM, 2′-((6-((3,5-difluoropyridin-2-yl)amino)pyrimidin-4-yl)amino)-4′-methyl-5′-oxo-5′,6′-dihydrospiro[cyclohexane-1,7′-pyrrolo[3,4-b]pyridine] 1′-oxide]",0.1 to 10,10 to 100,
"Cc1cc(Nc2cc(Nc3ccc(N4CCN(C)CC4)cn3)ncn2)[n+]([O-])c2c1C(=O)NC21CCCCC1 [Compound XXIX-AO, 4′-methyl-2′-[(6-{[5-(4-methylpiperazin-1-yl)pyridin-2-yl]amino}pyrimidin-4-yl)amino]-5′-oxo-5′,6′-dihydrospiro[cyclohexane-1,7′-pyrrolo[3,4-b]pyridin]-1′-ium-1′-olate]",0.1 to 10,0.1 to 10,
"Cc1cc(Nc2cc(N[C@H]3C[C@@H](O)C3)ncn2)[n+]([O-])c2c1C(=O)NC21CCCCC1 [Compound XXIX-AP, 2′-((6-(((cis)-3-hydroxycyclobutyl)amino)pyrimidin-4-yl)amino)-4′-methyl-5′-oxo-5′,6′-dihydrospiro[cyclohexane-1,7′-pyrrolo[3,4-b]pyridine] 1′-oxide]",0.1 to 10,10 to 100,
"Cc1cc(Nc2cc(Nc3cc[nH]n3)ncn2)[n+]([O-])c2c1C(=O)NC21CCCCC1 [Compound XXIX-AS, 2′-((6-((1H-pyrazol-3-yl)amino)pyrimidin-4-yl)amino)-4′-methyl-5′-oxo-5′,6′-dihydrospiro[cyclohexane-1,7′-pyrrolo[3,4-b]pyridine] 1′-oxide]",0.1 to 10,0.1 to 10,
"Cc1cc(Nc2cc(Nc3ccn(CCO)n3)ncn2)[n+]([O-])c2c1C(=O)NC21CCCCC1 [Compound XXIX-AT, 2′-((6-((1-(2-hydroxyethyl)-1H-pyrazol-3-yl)amino)pyrimidin-4-yl)amino)-4′-methyl-5′-oxo-5′,6′-dihydrospiro[cyclohexane-1,7′-pyrrolo[3,4-b]pyridine] 1′-oxide]",0.1 to 10,0.1 to 10,
"Cc1cc(Nc2cc(Nc3cccc(CO)n3)ncn2)[n+]([O-])c2c1C(=O)NC21CCCCC1 [Compound XXIX-AU, 2′-((6-((6-(hydroxymethyl)pyridin-2-yl)amino)pyrimidin-4-yl)amino)-4′-methyl-5′-oxo-5′,6′-dihydrospiro[cyclohexane-1,7′-pyrrolo[3,4-b]pyridine] 1′-oxide formate salt]",0.1 to 10,0.1 to 10,

# Source: patent US20240092799A1, “MNK INHIBITORS” (Hepagene Therapeutics (HK) Limited, priority 2020, published 2024)
